Source: article PMC5612938, “A multiple biomarker assay for quality assessment of botanical drugs using a versatile microfluidic chip” (Scientific Reports, 2017)

Target: T1, Thrombin (from human plasma) (Homo sapiens, UniProt P00734)
T1 construct: Thrombin (from human plasma); purchased Sigma-Aldrich; host or cells: human plasma
Test: on-chip thrombin inhibition assay (S-2238 hydrolysis, absorbance 405 nm)
Assay type: biochemical
Conditions: for thrombin inhibition (in words): at tested concentrations
Method: To enhance the performance of the on-chip assay, experimental parameters such as concentrations of enzymes and substrates, substrate reaction time, and incubation time of samples and enzymes were stepwise optimized. The activity of thrombin was determined by measuring the hydrolysis of chromogenic substrate S-2238 (HD-Phe-Pip-Arg-pNA) at 405 nm. As depicted in Fig. 2a, the absorbance increased rapidly along with the elevated concentrations of thrombin, while it reached a plateau at 0.5 U/mL. […] Moreover, it was clear from Fig. 2d that the maximum inhibitory effect of QSYQ sample (I1 of Table 1 in this assay) on thrombin was observed after 60 min of incubation. Therefore, to achieve favorable response and prevent signal saturation, optimal assay conditions for thrombin were determined to be 0.2 U/mL, 0.31 mM, 30 min and 60 min for the final concentrations of thrombin and S-2238, substrate reaction time and incubation time, respectively. […] In this assay, the concentrations of ACE and FAPGG were finally set at 0.027 U/mL and 0.72 mM, where the background value was lower and the reaction time was relatively shorter (30 min).
The optimized protocol was first applied to assess the quality of 11 batches of QSYQ intermediates (Table 1). Enzyme inhibition (in percentages) was employed as an indicator of drug quality and calculated according to the following equations: thrombin inhibition (%) = [1 − (AQSYQ/Ablank)] × 100; ACE inhibition (%) = [1 − (ΔAQSYQ/ΔAblank)] × 100; where AQSYQ and Ablank were the absorbance of the test sample and the blank sample after the enzymatic reaction (the background value was subtracted), and ΔAQSYQ and ΔAblank were the absorbance decrease between 0 min and 30 min of the samples. A scatter plot was generated to display the inhibition result of thrombin and ACE simultaneously. […] Moreover, artificial abnormal samples I6, I7 and I8, each with one abnormal (pre-extracted) herb, presented relatively lower inhibitions compared with I1.
Thrombin (from human plasma), ACE (from rabbit lung), FAPGG and captopril were purchased from Sigma-Aldrich (St. Louis, USA). S-2238 was obtained from Aglyco (Beijing, China). AEBSF-HCl was purchased from Selleckchem (Houston, USA). Trizma base (Tris) was obtained from Sangon Biotech (Shanghai, China) and dimethyl sulfoxide (DMSO) from J&K Scientific (Beijing, China). All other chemicals were purchased from Sinopharm Chemical (Shanghai, China) unless otherwise indicated. 0.2 M Phosphate buffer (PB, pH 6.5), and 50 mM Tris-HCl buffer (200 mM NaCl, pH 8.3) were prepared as assay buffers for thrombin and ACE, respectively.
MBs (10 mg/mL) were diluted 10 times in PB or Tris-HCl buffer, and 10 μL of the diluted MBs (1 mg/mL) were injected into one channel of the chip using a syringe infusion pump (Harvard Apparatus, USA) and retained by an external magnet. Then, 10 μL of thrombin or ACE solution was added and incubated with MBs for two hours at room temperature to form enzyme-MB complexes. The magnet was manually controlled to move MBs back and forth to enhance the ratio of reaction. Subsequently, MBs were washed twice in assay buffer and magnetically transferred to the other channel through the fluidic bridge, whose opening and closing was controlled by a pneumatic valve. Next, 10 μL of sample solutions of tested drug and 10 μL of enzymatic substrate were sequentially infused to the channel by the pump and incubated with the enzyme. When the enzymatic reaction was finished, the MBs were retained in the channel, and air was injected into the channel from the inlet using a syringe to push all the reacted solution to a 384-well plate. The absorbance of the solution was then monitored at 405 nm (for S-2238) or 340 nm (for FAPGG) using an Infinite F200 spectrophotometer (Tecan, Männedorf, Switzerland). Moreover, after detection, the reaction channel was washed three times by assay buffer to remove unbound constituents. […]

| SMILES | thrombin inhibition (in words) | inhibition rate (for thrombin, maximum inhibition rate observed in the assay) | IC50 (for thrombin) |
| --- | --- | --- | --- |
| O=C(O)C(O)Cc1ccc(O)c(O)c1 (stereo not shown) [Danshensu] | good thrombin inhibitions | 66.9% | – |
| O=C(/C=C/c1ccc(O)c2c1[C@H](C(=O)O[C@H](Cc1ccc(O)c(O)c1)C(=O)O)[C@@H](c1ccc(O)c(O)c1)O2)O[C@H](Cc1ccc(O)c(O)c1)C(=O)O [Salvianolic acid B] | good thrombin inhibitions | – | 81.9 µM |
